For data set [1] the following is noted: in vivo, po; cited from earlier work.
In the next data set the target is T1, RgpB (Porphyromonas gingivalis, UniProt P95493).
T1 construct: 0.02 nM RgpB, isolated from culture of Porphyromonas gingivalis; endogenous in cells
Kind of data set: RgpB inhibition, fluorogenic assay. In kind it is biochemical. Particulars: Activity (RgpB IC50), 0.02 nM RgpB, 10 μM Boc-Phe-Ser-Arg-MCA, 90 minutes, 37° C., pH=7.5. The procedure: The capacities of compounds of the present invention to inhibit the activity of RgpB were measured in a fluorogenic assay similar to those described in Barret Biochemical Journal. 1980, 187(3), 909. The specific assay conditions were as follows. Buffer: pH=7.5, 100 mM Tris-HCl, 75 mM NaCl, 2.5 mM CaCl2, 10 mM cysteine, 1% DMSO after all additions. Protein: 0.02 nM RgpB, isolated from culture of Porphyromonas gingivalis, as described in Pike et al. J. Biol. Chem. 1994, 269(1), 406, and Potempa and Nguyen. Current Protocols in Protein Scienc. 2007, 21.20.1-21.20.27. Fluorogenic substrate: 10 μM Boc-Phe-Ser-Arg-MCA. Time=90 minutes. Temperature=37° C. Each compound: 10 concentrations, starting at either 100 μM or 100 nM, with lower concentrations generated by serial 3-fold dilutions. By testing a range of concentrations for each compound, the concentration required to inhibit the activity of RgpB by 50% (the “IC50”) was determined.

The structures appear in SMILES notation. A value given as a limit tells only on which side of the number the result lay.

T1 sequence (P95493 230-664): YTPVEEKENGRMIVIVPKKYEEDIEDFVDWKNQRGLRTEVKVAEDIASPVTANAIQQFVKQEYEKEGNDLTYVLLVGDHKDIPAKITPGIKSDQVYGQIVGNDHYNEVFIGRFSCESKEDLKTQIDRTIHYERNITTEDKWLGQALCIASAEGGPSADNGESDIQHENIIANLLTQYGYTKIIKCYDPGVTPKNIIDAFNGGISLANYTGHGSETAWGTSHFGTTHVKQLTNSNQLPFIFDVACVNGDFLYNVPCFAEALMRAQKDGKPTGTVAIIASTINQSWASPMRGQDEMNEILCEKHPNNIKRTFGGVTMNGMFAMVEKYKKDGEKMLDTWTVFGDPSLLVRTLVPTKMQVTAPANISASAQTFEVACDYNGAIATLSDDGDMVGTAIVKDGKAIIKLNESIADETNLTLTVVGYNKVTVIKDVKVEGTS

Take `CN(NC(=O)CC[C@H](NC(=O)OCc1ccccc1)C(=O)N[C@@H](CCCCN)C(=O)C(=O)NCc1ccccc1)c1ccccc1` [Kyt-36]: the half-life entry in data set [1] was “increases the half-life”. In the case of `CN(C#N)c1ccc2ccnc(N)c2c1` [Compound 1, N-(1-aminoisoquinolin-7-yl)-N-methylcyanamide], on RgpB, the IC50 is > 100 µM. The same measure, in the same setting: then `Nc1ccc(C[C@@H](NC(=O)C2CCCC2)C(=O)COc2c(F)c(F)cc(F)c2F)cn1` [Compound 57, (R)—N-(1-(6-aminopyridin-3-yl)-3-oxo-4-(2,3,5,6-tetrafluorophenoxy)butan-2-yl)cyclopentanecarboxamide], with < 0.1 µM.

Values taken from patent US11059786B2, “Aminopyridine compounds and methods for the preparation and use thereof” (Cortexyme, Inc., priority 2017, dated 2021).
